Tests used:
[1] = test system: B-16 mouse melanoma cells; test: Measurement of melanin generation inhibitory effects in cultured melanoma cells; type: cell-based; conditions: for inhibition at 20 µg/mL: concentration 20 μg/ml
[2] = test system: B-16 mouse melanoma cells; conditions: 1 μg/ml or more
Description: Then, these cells were treated using trypsin, separated from a culture vessel and centrifuged, then, melanin was extracted from the cells. Melanin was dissolved by adding 1 ml of 1N sodium hydroxide solution to the extract and subjected to measurement of absorbance at 475 nm, and an amount of the generated melanin was expressed by an absorbance per unit number of cells (10^6 cells) (this procedure was repeated three times).

[3] = Mus musculus, 72 h, concentration 5 μg/ml, cultured 3 days, relative to control, read-out: Inhibition rate (melanin generation)
[4] = Mus musculus, 72 h, cultured 3 days, relative to control, read-out: Inhibition rate (melanin generation)

Structure (SMILES)	inhibition at 5 µg/mL [1, 3] [%]	inhibition at 20 µg/mL [1, 4] [%]	inhibition at 1 µg/mL ([1]; Mus musculus, 72 h, concentration 1 μg/ml, cultured 3 days, relative to control, read-out: Inhibition rate (melanin generation)) [%]	Inhibition rate (melanin generation) ([1]; concentration 5 μg/ml, cultured 3 days, relative to control)	Melanin generation inhibitory effects (in words) ([1]; cultured mouse melanoma cells, comparison with hydroquinone)	Cytotoxicity [2]
CCCCC(CC)C(=O)Oc1ccc(-c2cc(=O)c3c(OC(=O)C(CC)CCCC)cc(OC(=O)C(CC)CCCC)cc3o2)cc1 (stereo not drawn) [Material in Example 14, 5,7,4′-tris-(2-ethylhexanoyloxy)-flavone]	31	57	–	–	–	–
CCCCC(CC)C(=O)Oc1cc(C=Cc2ccc(OC(=O)C(CC)CCCC)c(OC(=O)C(CC)CCCC)c2)cc(OC(=O)C(CC)CCCC)c1 (stereo not drawn) [Material in Example 18, 3,4,3′,5′-tetrakis-(2-ethylhexanoyloxy)-stilbene]	47	72	–	–	–	–
CCCCCCCCCCCC(=O)Oc1cccc(OC(=O)CCCCCCCCCCC)c1 [Material in Example 7, 1,3-bis-lauroyloxy-benzene]	21	43	–	–	–	–
CCCCC(CC)C(=O)Oc1ccc(-c2coc3cc(OC(=O)C(CC)CCCC)cc(OC(=O)C(CC)CCCC)c3c2=O)cc1 (stereo not drawn) [Material in Example 12, 4′,5,7-tris-(2-ethylhexanoyloxy)-isoflavone]	35	65	–	–	–	–
CCCCC(CC)C(=O)Oc1ccc(C2CC(=O)c3c(OC(=O)C(CC)CCCC)cc(OC(=O)C(CC)CCCC)cc3O2)cc1 (stereo not drawn) [Material in Example 16, 4′,5,7-tris-(2-ethylhexanoyloxy)-flavanone]	41	59	–	–	–	–
CCCCCCCC(=O)Oc1cccc(OC(=O)CCCCCCC)c1 [Material in Example 4, 1,3-bis-octanoyloxy-benzene]	41	71	–	–	–	–
CCCCC(CC)C(=O)Oc1ccc(-c2oc3cc(OC(=O)C(CC)CCCC)cc(OC(=O)C(CC)CCCC)c3c(=O)c2OC(=O)C(CC)CCCC)cc1 (stereo not drawn) [Material in Example 17, 3,5,7,4′-tetrakis-(2-ethylhexanoyloxy)-flavone]	32	69	–	–	–	–
CCCCC(CC)C(=O)Oc1ccnc(OC(=O)C(CC)CCCC)c1 (stereo not drawn) [Material in Example 9, 2,4-bis-(2-ethylhexanoyloxy)-pyridine]	41	67	–	–	–	–
CCCCC(CC)C(=O)Oc1cc2oc(-c3ccccc3)cc(=O)c2c(OC(=O)C(CC)CCCC)c1OC(=O)C(CC)CCCC (stereo not drawn) [Material in Example 15, 5,6,7-tris-(2-ethylhexanoyloxy)-flavone]	39	72	–	–	–	–
CC(C)=CC(=O)Oc1cccc(OC(=O)C=C(C)C)c1 [Material in Example 3, 1,3-bis-(3-methyl-2-butenoyloxy)-benzene]	53	83	–	–	–	–
CCCCCCCCCC(=O)Oc1cccc(OC(=O)CCCCCCCCC)c1 [Material in Example 6, 1,3-bis-decanoyloxy-benzene]	32	53	–	–	–	–
CCCCC(CC)C(=O)Oc1cc(OC(=O)C(CC)CCCC)c2ccccc2c1 (stereo not drawn) [Material in Example 8, 1,3-bis-(2-ethylhexanoyloxy)-naphthalene]	35	63	–	–	–	–
Oc1ccc(O)cc1 [Hydroquinone, hydroquinone, reference compound]	–	–	52	Apoptosis	strong effects of inhibiting melanin generation at a low concentration	serious cytotoxicity
CCCCC(CC)C(=O)Oc1ccc(C=Cc2cc(OC(=O)C(CC)CCCC)cc(OC(=O)C(CC)CCCC)c2)cc1 (stereo not drawn) [Material in Example 11, 3,4′,5-tris-(2-ethylhexanoyloxy)-stilbene]	31	54	–	–	–	–
CCCCC(CC)C(=O)Oc1cccc(OC(=O)C(CC)CCCC)c1OC(=O)C(CC)CCCC (stereo not drawn) [Material in Example 10, 1,2,3-tris-(2-ethylhexanoyloxy)-benzene]	38	65	–	–	–	–
CCCCC(CC)C(=O)Oc1cccc(OC(=O)C(CC)CCCC)c1 (stereo not drawn) [Material in Example 5, 1,3-bis-(2-ethyl-hexanoyloxy)-benzene]	45	79	–	–	–	–
CCCCC(=O)Oc1cccc(OC(=O)CCCC)c1 [Material in Example 2, 1,3-bis-pentanoyloxy-benzene]	52	85	–	–	–	–
CCCC(=O)Oc1cccc(OC(=O)CCC)c1 [Material in Example 1, 1,3-bis-butyryloxy-benzene]	43	68	–	–	–	–
CCCCC(CC)C(=O)Oc1cc(OC(=O)C(CC)CCCC)c2c(=O)c(OC(=O)C(CC)CCCC)c(-c3ccccc3)oc2c1 (stereo not drawn) [Material in Example 13, 3,5,7-tris-(2-ethylhexanoyloxy)-flavone]	30	63	–	–	–	–
CCCCC(CC)C(=O)Oc1cc(OC(=O)C(CC)CCCC)c2c(c1)OC(c1ccc(OC(=O)C(CC)CCCC)c(OC(=O)C(CC)CCCC)c1)C(OC(=O)C(CC)CCCC)C2 (stereo not drawn) [Material in Example 19, 3,3′,4′,5,7-pentakis-(2-ethylhexanoyloxy)-flavane]	39	69	–	–	–	–
